According to ChEMBL document CHEMBL1909046, “DrugMatrix in vitro pharmacology data”:

Experiments:
Adenosine receptor A2a = Adenosine receptor A2a (Homo sapiens, UniProt P29274); assay: DRUGMATRIX: Adenosine A2A radioligand binding (ligand: […]); assay type: cell membranes, HEK293, Membrane; conditions: hek293; Not Active = under 50% inhibition at 10 µM
D(1A) dopamine receptor = D(1A) dopamine receptor (Homo sapiens, UniProt P21728); assay: DRUGMATRIX: Dopamine D1 radioligand binding (ligand: [3H] SCH-23390); assay type: cell membranes, CHO, Membrane; conditions: cho; Not Active = under 50% inhibition at 10 µM
Chain of D(1A) dopamine receptor (P21728 whole entry): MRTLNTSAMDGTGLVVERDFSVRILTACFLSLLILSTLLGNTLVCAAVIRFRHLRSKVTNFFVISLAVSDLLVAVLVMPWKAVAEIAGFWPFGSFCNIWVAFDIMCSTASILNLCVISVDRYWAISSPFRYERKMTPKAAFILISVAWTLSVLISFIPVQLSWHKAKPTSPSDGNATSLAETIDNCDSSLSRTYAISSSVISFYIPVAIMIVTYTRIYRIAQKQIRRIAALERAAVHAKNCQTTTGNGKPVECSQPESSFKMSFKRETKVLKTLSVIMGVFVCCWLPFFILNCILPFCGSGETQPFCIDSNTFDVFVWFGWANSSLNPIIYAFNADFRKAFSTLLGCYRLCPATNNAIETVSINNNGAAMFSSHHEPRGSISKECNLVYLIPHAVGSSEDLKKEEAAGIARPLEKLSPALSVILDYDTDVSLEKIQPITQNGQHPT

[1] = DRUGMATRIX: GABAA, Muscimol, Central radioligand binding (ligand: [3H] Muscimol); assay type: cell membranes, Rattus norvegicus, Wistar, Brain, Membrane; conditions: Not Active = under 50% inhibition at 10 µM
[2] = target: 5-hydroxytryptamine receptor 1B (Rattus norvegicus, UniProt P28564); assay type: cell membranes, Wistar, Cerebral cortex, Membrane; note: in other assays of this panel Not Active means under 50% inhibition at 10 µM
Chain of 5-hydroxytryptamine receptor 1B (P28564 whole entry): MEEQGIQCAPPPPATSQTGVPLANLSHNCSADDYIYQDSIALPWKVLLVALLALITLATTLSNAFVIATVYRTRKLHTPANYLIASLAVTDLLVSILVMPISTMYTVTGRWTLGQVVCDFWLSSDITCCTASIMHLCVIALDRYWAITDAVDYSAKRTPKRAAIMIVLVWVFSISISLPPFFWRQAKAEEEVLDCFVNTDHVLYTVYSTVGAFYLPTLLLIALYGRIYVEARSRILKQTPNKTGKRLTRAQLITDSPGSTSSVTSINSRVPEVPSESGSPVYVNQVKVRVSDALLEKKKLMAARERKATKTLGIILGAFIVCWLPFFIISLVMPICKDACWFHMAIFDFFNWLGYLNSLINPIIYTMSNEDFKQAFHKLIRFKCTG

Adenosine receptor A1 = target: T1, Adenosine receptor A1 (Homo sapiens, UniProt P30542); assay type: cell membranes, CHO, Membrane; conditions: cho;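 note: radioligand binding assay at the adenosine A1 receptor, with DPCPX serving as the labelled ligand; in other assays of this panel Not Active means under 50% inhibition at 10 µM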
T1 sequence (P30542 whole entry): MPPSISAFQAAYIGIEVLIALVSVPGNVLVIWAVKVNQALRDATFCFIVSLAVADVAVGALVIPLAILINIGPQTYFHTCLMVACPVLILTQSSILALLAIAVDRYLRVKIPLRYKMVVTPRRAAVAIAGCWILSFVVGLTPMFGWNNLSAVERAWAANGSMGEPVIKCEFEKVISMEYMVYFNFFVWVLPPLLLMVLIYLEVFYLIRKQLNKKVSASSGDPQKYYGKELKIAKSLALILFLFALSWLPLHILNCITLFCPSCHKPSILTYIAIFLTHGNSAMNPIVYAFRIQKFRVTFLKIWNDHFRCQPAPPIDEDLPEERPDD

Chain of Adenosine receptor A2a (P29274 whole entry): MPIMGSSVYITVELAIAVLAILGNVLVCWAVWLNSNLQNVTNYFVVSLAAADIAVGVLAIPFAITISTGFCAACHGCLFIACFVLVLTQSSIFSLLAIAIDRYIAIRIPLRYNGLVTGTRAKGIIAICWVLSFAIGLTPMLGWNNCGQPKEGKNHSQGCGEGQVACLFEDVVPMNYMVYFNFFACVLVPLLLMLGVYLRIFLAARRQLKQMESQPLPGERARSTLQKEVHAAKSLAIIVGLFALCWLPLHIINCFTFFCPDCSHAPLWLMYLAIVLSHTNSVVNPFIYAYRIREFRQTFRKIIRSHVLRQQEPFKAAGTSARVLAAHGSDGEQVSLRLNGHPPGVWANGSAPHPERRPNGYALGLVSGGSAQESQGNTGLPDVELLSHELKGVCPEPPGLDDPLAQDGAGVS

C=CCN1CC[C@]23c4c5ccc(O)c4O[C@H]2/C(=N/N=C2\CC[C@@]4(O)[C@H]6Cc7ccc(O)c8c7[C@@]4(CCN6CC=C)[C@H]2O8)CC[C@@]3(O)[C@H]1C5 [NALOXONAZINE]
Not Active: IC50 (Adenosine receptor A2a) | IC50 (D(1A) dopamine receptor) | IC50 [1] | Ki [1] | IC50 [2] | IC50 (Adenosine receptor A1)

Oc1ncnc2[nH]ncc12 [ALLOPURINOL]
Not Active: IC50 (Adenosine receptor A2a) | IC50 (D(1A) dopamine receptor) | IC50 [1] | Ki [1] | IC50 [2] | IC50 (Adenosine receptor A1)

CCC1(c2ccccc2)C(=O)NC(=O)NC1=O [PHENOBARBITAL]
Not Active: IC50 (Adenosine receptor A2a) | IC50 (D(1A) dopamine receptor) | IC50 [1] | Ki [1] | IC50 [2] | IC50 (Adenosine receptor A1)

CHROMIC CHLORIDE
Not Active: IC50 (Adenosine receptor A2a) | Ki (Adenosine receptor A2a) | IC50 (D(1A) dopamine receptor) | Ki (D(1A) dopamine receptor) | IC50 [1] | Ki [1] | IC50 [2] | Ki [2] | IC50 (Adenosine receptor A1) | Ki (Adenosine receptor A1)

CCCCCCNC(=O)n1cc(F)c(=O)[nH]c1=O [CARMOFUR]
Not Active: IC50 (Adenosine receptor A2a) | IC50 (D(1A) dopamine receptor) | IC50 [1] | Ki [1] | IC50 [2] | IC50 (Adenosine receptor A1)

O=C(O)CCc1nc(-c2ccccc2)c(-c2ccccc2)o1 [OXAPROZIN]
Not Active: IC50 (Adenosine receptor A2a) | IC50 (D(1A) dopamine receptor) | IC50 [1] | Ki [1] | IC50 [2] | IC50 (Adenosine receptor A1)

CCN1C[C@]2(COC)[C@H](O)C[C@H](OC)[C@@]34[C@@H]5C[C@@]6(O)[C@H](OC(=O)c7ccccc7)[C@@H]5[C@@](OC(C)=O)([C@@H]([C@H](OC)[C@H]23)[C@@H]14)[C@@H](O)[C@@H]6OC [ACONITINE]
Not Active: IC50 (Adenosine receptor A2a) | IC50 (D(1A) dopamine receptor) | IC50 [1] | Ki [1] | IC50 [2] | IC50 (Adenosine receptor A1)

Oc1ccccc1 [PHENOL]
Not Active: IC50 (Adenosine receptor A2a) | IC50 (D(1A) dopamine receptor) | IC50 [1] | Ki [1] | IC50 [2] | IC50 (Adenosine receptor A1)

Nc1nc(F)nc2c1ncn2[C@@H]1O[C@H](CO)[C@@H](O)[C@@H]1O [FLUDARABINE]
Not Active: IC50 (Adenosine receptor A2a) | IC50 (D(1A) dopamine receptor) | IC50 [1] | Ki [1] | IC50 [2] | IC50 (Adenosine receptor A1)

O=C1CN(/N=C/c2ccc([N+](=O)[O-])o2)C(=O)N1 [NITROFURANTOIN]
Not Active: IC50 (Adenosine receptor A2a) | IC50 (D(1A) dopamine receptor) | IC50 [1] | Ki [1] | IC50 [2] | IC50 (Adenosine receptor A1)

CC12CCC(CC1=O)C2(C)C (stereo unspecified) [CAMPHOR]
Not Active: IC50 (Adenosine receptor A2a) | IC50 (D(1A) dopamine receptor) | IC50 [1] | Ki [1] | IC50 [2] | IC50 (Adenosine receptor A1)

Nc1nc(N)c2nc(CNc3ccc(C(=O)N[C@@H](CCC(=O)O)C(=O)O)cc3)cnc2n1 [AMINOPTERIN]
Not Active: IC50 (Adenosine receptor A2a) | IC50 (D(1A) dopamine receptor) | IC50 [1] | Ki [1] | IC50 [2] | IC50 (Adenosine receptor A1)
